From patent US20230181681A1, “PEPTIDE FOR SUPPRESSING CORONAVIRUS AND USE THEREOF” (priority 2020, published 2023)
Ends that are not written are not given here.

Experiments:
MERS-CoV = format: cell-based
SARS-CoV-2 = format: cell-based
MERS-CoV N protein = format: binding
[1] = system: interaction of MERS-CoV Spike CD with MERS-CoV N protein; format: binding
HCoV-OC43 [2] = test: HCoV-OC43 production in Vero cells by plaque formation assay; format: cell-based; settings: 0.1 MOI, 2 μM peptide 6 hours after infection, 48 hours, plaque formation test, FIG. 23
HCoV-OC43 [3] = test: HCoV-OC43 S and N protein production in infected Vero cells (Western blotting, confocal microscopy); format: cell-based; settings: 0.1 MOI, peptide 6 hours after infection, 48 h, FIGS. 20 to 22

NH2-d-RRRRRRRRRR-AQARRKNYGQLDIFP-COOH [R-CP-1]
MERS-CoV plaque formation (MERS-CoV): no effect was observed | reduction of SARS-CoV-2 production (SARS-CoV-2): 40%

TGCGTNCMGKLKCNRC [Spike CD-F]
binding of Spike CD peptides with N protein (MERS-CoV N protein): can tightly bind with N protein | relative activity in inhibiting the interaction between Spike CD-Full and N protein [1]: highest activity

R-Spike CD-OC43 (RRRRRRRRRCCTGCGTSCFKKCGGCCDDYTGYQELVIKTSHDD; not fully specified; cysteine pairing not given here)
reduction of HCoV-OC43 production (HCoV-OC43 [2]): 20%

CCTGCGTSCFKKCGGCCDDYTGYQELVIKTSHDD [Spike CD-OC43]
production of S protein and N protein of HCoV-OC43 (HCoV-OC43 [3]): no effect was observed
